pKd: −log10 of the molar value.
Target: T1, CASP3 (Casp3) (Homo sapiens, UniProt P42574)
T1 construct: commercial recombinant protein, captured on Ni-NTA chip (His tag implied)
T1 sequence (P42574 29-175): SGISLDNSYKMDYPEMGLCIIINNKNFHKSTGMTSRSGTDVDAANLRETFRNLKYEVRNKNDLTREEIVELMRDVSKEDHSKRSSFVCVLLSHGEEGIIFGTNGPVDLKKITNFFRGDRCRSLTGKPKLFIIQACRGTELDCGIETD
T1 sequence (P42574 176-277): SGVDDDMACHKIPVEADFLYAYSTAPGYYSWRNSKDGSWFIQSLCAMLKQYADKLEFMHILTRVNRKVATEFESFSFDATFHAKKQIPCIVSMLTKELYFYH
Assay: SPR (OpenSPR, NTA chip, one-to-one model)
Assay type: binding
Description: SPR (OpenSPR, NTA chip, one-to-one model) on CASP3 (Casp3)

## O=c1c(O)c(-c2ccc(O)cc2)oc2cc(O)cc(O)c12 [Kaempferol]
  pKd: 5.12

From paper PMC9078765, “Utilizing Network Pharmacology and Molecular Docking Integrated Surface Plasmon Resonance Technology to Investigate the Potential Targets and Mechanisms of Tripterygium wilfordii against Pulmonary Artery Hypertension” (Evidence-based Complementary and Alternative Medicine : eCAM, 2022)
